The supplement of paper PMC8253809

Columns and labels:
HGGX39 [1] = paediatric high-grade glioma line; test: EC50 (inflection of fitted growth-inhibition curve) (log10 M)
Outline: (§1)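 Viability readout was CellTiter-Glo luminescence, log2-transformed, normalised per plate to % activity between negative (solvent) and positive control wells, then pooled. This followed a 7-day exposure (3 days for iAstro) at 37 °C, 5% CO2 to a 10-point threefold dilution series (mean top concentration 35 μM), pin-tool delivered in triplicate to patient-derived pHGG/DIPG cell lines and astrocyte controls on 1% Geltrex-coated 384-well plates. Three- and four-parameter log-logistic fits were compared, and the one with the lowest AICc supplied EC50 and maximal response (yFin).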

HGGX39 [2] = test: maximal growth inhibition (yFin) relative to DMSO / staurosporine; higher = more efficacious
Outline: as §1

HGGX39 [3] = test: area under dose-response curve of % growth inhibition (log2 RLU vs DMSO / staurosporine), 1e-11 to 1e-4 M (% x log10 M); higher = more growth inhibition
Outline: (§2)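 Patient-derived pHGG/DIPG cell lines and astrocytes, cultured on 384-well plates with a 1% Geltrex coating, were given a 10-point threefold dilution series (mean top concentration 35 μM) in triplicate for 7 days (iAstro 3 days) at 37 °C, 5% CO2. CellTiter-Glo signal, log2-transformed and normalised per plate to % activity against solvent and positive controls, was fitted with a log-logistic curve or, where the sigmoid fit failed, a smoothing spline. Area under the curve was then computed by the trapezoid rule.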

HGGX6 = H3.3 G34R paediatric high-grade glioma line; test: as above
Outline: as §2

DIPGX29 = H3.3 K27M diffuse intrinsic pontine glioma line; test: as above
Outline: as §2

DIPGX37 [4] = H3.3 K27M diffuse intrinsic pontine glioma line; test: as above
Outline: as §2

DIPGX37 [5] = test: EC50 (inflection of fitted growth-inhibition curve) (log10 M)
Outline: as §1

DIPGX37 [6] = test: maximal growth inhibition (yFin) relative to DMSO / staurosporine; higher = more efficacious
Outline: as §1

| SMILES | EC50 (log10 M) (HGGX39 [1]) | maximal growth inhibition (HGGX39 [2]) | area under dose-response curve (HGGX39 [3]) | area under dose-response curve (HGGX6) | area under dose-response curve (DIPGX29) | area under dose-response curve (DIPGX37 [4]) | EC50 (log10 M) (DIPGX37 [5]) | maximal growth inhibition (DIPGX37 [6]) |
| --- | --- | --- | --- | --- | --- | --- | --- | --- |
| COc1ccc(C2CC(c3ccccc3)=NN2c2ccc(S(N)(=O)=O)cc2)cc1 (configuration not stated) [ML141] | -4.54 | 38.3% | 20 | 33.7 | 26.6 | 33.4 | – | – |
| CCC(C)n1ncn(-c2ccc(N3CCN(c4ccc(OCC5COC(Cn6cncn6)(c6ccc(Cl)cc6Cl)O5)cc4)CC3)cc2)c1=O (configuration not stated) [ITRACONAZOLE] | – | – | 28.4 | 29.7 | 20 | 56.7 | -4.91 | 62.3% |
| O=C1c2c(O)ccc(O)c2C(=O)c2c(NCCNCCO)ccc(NCCNCCO)c21 [MITOXANTHRONE] | – | – | 116 | 112 | 116 | 104 | -4.79 | 81.9% |
| CS(=O)(=O)c1ccc([C@@H](O)[C@@H](CO)NC(=O)C(Cl)Cl)cc1 [THIAMPHENICOL] | -6 | 26% | 52 | 19.8 | 15.4 | 29.7 | – | – |
| COc1cc([C@@H]2c3cc4c(cc3[C@@H](O[C@@H]3O[C@@H]5CO[C@@H](C)O[C@H]5[C@H](O)[C@H]3O)[C@H]3COC(=O)[C@H]23)OCO4)cc(OC)c1O [ETOPOSIDE] | – | – | 33.1 | 25.4 | 39.6 | 14.2 | – | – |
| O=C(O)CNC(=O)c1c(O)c2ccccc2n(Cc2ccccc2)c1=O [IOX2] | – | – | 12.7 | 12.6 | 9.33 | 6.07 | – | – |
| COc1cc2c(cc1OCCCN1CCCC1)N=C(N)C21CCC1 [A-366] | – | – | 9.97 | 19.9 | 9.92 | 19 | – | – |
| Nc1ccn([C@H]2CC[C@@H](CO)O2)c(=O)n1 [ZALCITABINE] | – | – | 14.5 | 2.54 | 13.5 | 14.2 | – | – |
| CCOC(=O)c1ccnc(CNCC(=O)N(CC)CCN(C)C)c1 [KDM5-C70] | – | – | 7.74 | 2.7 | 9.21 | 3.66 | – | – |
| Cc1cc(C#N)cc(C)c1Oc1nc(Nc2ccc(C#N)cc2)nc(N)c1Br [ETRAVIRINE] | – | – | 18.9 | 9.91 | 24.2 | 10.8 | – | – |
| O=C(NCC(=O)N1CCCC1)Nc1ccc2cnccc2c1 [SGC-707] | -4.55 | 58.4% | 31.4 | 11.3 | 20.9 | 11.8 | – | – |
| CN1CCN(c2ccc(-c3cccc(CN4CCOCC4)c3)cc2NC(=O)c2c[nH]c(=O)cc2C(F)(F)F)CC1 [OICR-9429] | – | – | 6.53 | 15.6 | 6.88 | 4.44 | – | – |
| CC(=O)O[C@H]1CC[C@@]2(C)C(=CC[C@@H]3[C@@H]2CC[C@]2(C)C(c4cccnc4)=CC[C@@H]32)C1 [ABIRATERONE ACETATE] | – | – | 6.95 | 0 | 0 | 20.1 | – | – |
| CS(=O)(=O)c1ccc([C@@H](O)[C@@H](CF)NC(=O)C(Cl)Cl)cc1 [FLORFENICOL] | – | – | 15.6 | 4.4 | 11.3 | 10.6 | – | – |
| CC(C)(C#N)c1cc(Cn2cncn2)cc(C(C)(C)C#N)c1 [ANASTROZOLE] | – | – | 1.48 | 1.46 | 7.52 | 5.71 | – | – |
| C[C@H]1C[C@H]2[C@@H]3CCC4=CC(=O)C=C[C@]4(C)[C@@]3(F)[C@@H](O)C[C@]2(C)[C@@]1(O)C(=O)CO [BETAMETHASONE] | – | – | 11.8 | 16.4 | 23.1 | 10.5 | – | – |
| CCCOc1ccn2c(C(C)=O)cc(-c3ccccc3S(C)(=O)=O)c2c1 [GSK2801] | – | – | 10.4 | 21.4 | 19.1 | 8.52 | – | – |
| CC1=C(CC(=O)O)c2cc(F)ccc2/C1=C\c1ccc([S+](C)[O-])cc1 (configuration not stated) [SULINDAC] | – | – | 4.57 | 6.88 | 3.44 | 16.9 | – | – |
| CC(C)N(C[C@H]1O[C@@H](n2cnc3c(N)ncnc32)[C@H](O)[C@@H]1O)[C@H]1C[C@@H](CCc2nc3cc(C(C)(C)C)ccc3[nH]2)C1 [PINOMETOSTAT] | – | – | 0.36 | 4.37 | 6.21 | 14.5 | – | – |
| OC[C@H]1O[C@@H](n2cnc3c2N=CNC[C@H]3O)C[C@@H]1O [PENTOSTATIN] | – | – | 10 | 5.39 | 3.92 | 10.9 | – | – |
| CCCC1O[C@@H]2C[C@H]3[C@@H]4CCC5=CC(=O)C=C[C@]5(C)[C@H]4[C@@H](O)C[C@]3(C)[C@]2(C(=O)CO)O1 (some centres not stated) [BUDESONIDE] | – | – | 11.8 | 6.8 | 35.7 | 19.3 | – | – |
| CN(C)C(=O)c1cc2cnc(Nc3ccc(N4CCNCC4)cn3)nc2n1C1CCCC1 [RIBOCICLIB] | -5.39 | 21.8% | 32.5 | 17.1 | 13.1 | 27.7 | – | – |
| Nc1nc(Cl)nc2c1ncn2[C@H]1C[C@H](O)[C@@H](CO)O1 [CLADRIBINE] | – | – | 40.8 | 39.3 | 54.8 | 32.4 | – | – |
| Nc1nc2[nH]cc(CCc3ccc(C(=O)N[C@@H](CCC(=O)O)C(=O)O)cc3)c2c(=O)[nH]1 [PEMETREXED] | – | – | 23.2 | 12.7 | 34.6 | 9.28 | – | – |
| CNCCN1CCC(OCc2ccccc2)CC1 [MS049] | – | – | 9.22 | 11.9 | 19.1 | 10.6 | – | – |
